Patent US20230000870A1, “METHODS OF TREATING CANCER IN BIOMARKER-IDENTIFIED PATIENTS WITH INHIBITORS OF CYCLIN-DEPENDENT KINASE 7 (CDK7)” (Syros Pharmaceuticals, Inc., priority 2019, published 2023)

How the values were obtained:
[1] = tested on: A673 cells; assay: Inhibition of proliferation of A673 cells (CyQUANT, 72 hour); type: cell-based, human; conditions: read-out: Inhibition of Proliferation of A673 Cells (calculated IC50)
Protocol: A673 Cells: A673 cells are a cell line derived from human muscle Ewing's sarcoma. Representative compounds of the invention were tested at different concentrations (from 4 μM to […]; 0.5 log serial dilutions) for their ability to inhibit the proliferation of A673 cells. Known CDK inhibitors dinaciclib or N-((1S,3R)-3-((5-chloro-4-(1H-indol-3-yl)pyrimidin-2-yl)amino)cyclohexyl)-5-((E)-4-(dimethylamino)but-2-enamido)picolinamide and triptolide were used as positive controls. Cells were grown in Dulbecco's Modified Eagle's Medium, +10% FBS+1 mM Sodium Pyruvate. The cells were cultured at 37° C. in a humidified chamber in the presence of 5% CO2. Proliferation assays were conducted over a 72 hour time period. CyQUANT® (Life Technologies, Chicago, Ill. USA) was used to assess the anti-proliferative effects of the compounds following manufacturer's directions and utilizing the reagents supplied with the CyQUANT® kit.

[2] = biological target: CDK2/Cyclin E1 complex (Homo sapiens, UniProt P24941); assay: CDK2 kinase inhibition assay (Caliper/LabChip EZ Reader); type: biochemical; conditions: CDK2/Cyclin E1 0.5 nM, ATP 2 mM, 35 min at 27° C.
Protocol: (§1) Compounds of the invention were assayed for inhibition of CDK7, CDK9, CDK12, and CDK2 activity at Biortus Biosciences (Jiangyin, Jiangsu Province, P.R. of China) using kinase assays for each CDK developed with a Caliper/LabChip EZ Reader (Perkin Elmer, Waltham, Mass.).
(§2) Furthermore, the CDK9 inhibition assay used CDK9/Cyclin T1 complex (8 nM) and “5-FAM-CDK9tide” peptide substrate (2 μM, synthesized fluorophore-labeled peptide with the following sequence: 5-FAM-GSRTPMY-NH2 where 5-FAM is defined above and NH2 signifies a C-terminal amide) with 10 mM MgCl2 in the buffer composition listed above. The CDK12 inhibition assay used CDK12 (aa686-1082)/Cyclin K complex (50 nM) and “5-FAM-CDK9tide” (2 μM) as defined above, with 2 mM MgCl2 in the buffer composition above. Additionally, the CDK2 inhibition assay used CDK2/Cyclin E1 complex (0.5 nM) and “5-FAM-CDK7tide” (2 μM) as defined above, with 2 mM MgCl2 in the buffer composition listed above.
(§3) The incubation period at 27° C. for each CDK inhibition assay was chosen such that the fraction of phosphorylated peptide product produced in each assay, relative to the total peptide concentration, was approximately 20% (±5%) for the uninhibited kinase (35 min. for CDK7, 35 min. for CDK2, 3 hr. for CDK12, 15 min. for CDK9).

[3] = biological target: CDK7/Cyclin H/MAT1 complex (Homo sapiens, UniProt P50613); assay: CDK7 kinase inhibition assay (Caliper/LabChip EZ Reader); type: biochemical; conditions: CDK7/Cyclin H/MAT1 6 nM, ATP 2 mM, 35 min at 27° C.
Sequence of CDK7/Cyclin H/MAT1 complex (P50613 whole entry): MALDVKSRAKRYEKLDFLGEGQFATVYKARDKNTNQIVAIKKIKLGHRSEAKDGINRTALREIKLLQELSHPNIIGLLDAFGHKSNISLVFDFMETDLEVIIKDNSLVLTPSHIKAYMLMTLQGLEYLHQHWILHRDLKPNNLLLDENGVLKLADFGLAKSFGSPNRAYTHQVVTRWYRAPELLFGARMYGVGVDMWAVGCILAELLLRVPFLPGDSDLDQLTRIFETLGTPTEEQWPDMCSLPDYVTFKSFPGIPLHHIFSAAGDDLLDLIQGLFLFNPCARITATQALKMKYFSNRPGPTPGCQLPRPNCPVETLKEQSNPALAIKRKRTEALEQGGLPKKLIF
Sequence of CDK7/Cyclin H/MAT1 complex (P51946 whole entry partner): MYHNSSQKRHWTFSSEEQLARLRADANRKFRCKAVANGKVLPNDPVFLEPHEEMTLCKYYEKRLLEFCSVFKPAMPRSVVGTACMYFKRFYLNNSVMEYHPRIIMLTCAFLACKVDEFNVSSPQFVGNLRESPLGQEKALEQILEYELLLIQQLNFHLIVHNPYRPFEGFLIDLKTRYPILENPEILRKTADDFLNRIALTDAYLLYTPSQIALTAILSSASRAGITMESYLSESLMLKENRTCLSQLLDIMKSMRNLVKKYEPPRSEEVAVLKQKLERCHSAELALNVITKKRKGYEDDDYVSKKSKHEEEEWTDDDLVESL
Sequence of CDK7/Cyclin H/MAT1 complex (P51948 whole entry partner): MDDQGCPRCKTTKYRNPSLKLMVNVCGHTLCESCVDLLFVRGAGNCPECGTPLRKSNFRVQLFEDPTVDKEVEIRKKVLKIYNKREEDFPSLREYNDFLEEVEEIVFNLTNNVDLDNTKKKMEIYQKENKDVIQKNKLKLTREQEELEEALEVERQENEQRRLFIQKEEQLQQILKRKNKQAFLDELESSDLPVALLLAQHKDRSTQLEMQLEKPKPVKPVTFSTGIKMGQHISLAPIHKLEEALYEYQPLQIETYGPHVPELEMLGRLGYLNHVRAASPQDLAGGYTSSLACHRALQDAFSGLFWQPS
Protocol: as §1, §2, §3

[4] = biological target: T1, CDK12 (aa686-1082)/Cyclin K complex (Homo sapiens, UniProt Q9NYV4); assay: CDK12 kinase inhibition assay (Caliper/LabChip EZ Reader); type: biochemical; conditions: CDK12 (aa686-1082)/Cyclin K 50 nM, ATP 2 mM, 3 hr at 27° C.
T1 construct: CDK12 (aa686-1082)/Cyclin K complex
T1 sequence (Q9NYV4 686-1082): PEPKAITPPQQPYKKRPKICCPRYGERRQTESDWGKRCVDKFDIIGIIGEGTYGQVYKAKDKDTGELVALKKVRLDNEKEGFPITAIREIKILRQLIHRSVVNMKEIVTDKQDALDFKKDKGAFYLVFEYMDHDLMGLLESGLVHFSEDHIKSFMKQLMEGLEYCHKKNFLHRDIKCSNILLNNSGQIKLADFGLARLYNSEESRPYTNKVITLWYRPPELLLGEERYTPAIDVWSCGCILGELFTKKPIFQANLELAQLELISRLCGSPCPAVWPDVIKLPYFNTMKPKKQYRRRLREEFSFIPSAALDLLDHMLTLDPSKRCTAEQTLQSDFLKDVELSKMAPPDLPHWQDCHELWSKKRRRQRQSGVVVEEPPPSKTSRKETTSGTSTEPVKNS
T1 sequence (O75909 whole entry partner, the tested form may be a part): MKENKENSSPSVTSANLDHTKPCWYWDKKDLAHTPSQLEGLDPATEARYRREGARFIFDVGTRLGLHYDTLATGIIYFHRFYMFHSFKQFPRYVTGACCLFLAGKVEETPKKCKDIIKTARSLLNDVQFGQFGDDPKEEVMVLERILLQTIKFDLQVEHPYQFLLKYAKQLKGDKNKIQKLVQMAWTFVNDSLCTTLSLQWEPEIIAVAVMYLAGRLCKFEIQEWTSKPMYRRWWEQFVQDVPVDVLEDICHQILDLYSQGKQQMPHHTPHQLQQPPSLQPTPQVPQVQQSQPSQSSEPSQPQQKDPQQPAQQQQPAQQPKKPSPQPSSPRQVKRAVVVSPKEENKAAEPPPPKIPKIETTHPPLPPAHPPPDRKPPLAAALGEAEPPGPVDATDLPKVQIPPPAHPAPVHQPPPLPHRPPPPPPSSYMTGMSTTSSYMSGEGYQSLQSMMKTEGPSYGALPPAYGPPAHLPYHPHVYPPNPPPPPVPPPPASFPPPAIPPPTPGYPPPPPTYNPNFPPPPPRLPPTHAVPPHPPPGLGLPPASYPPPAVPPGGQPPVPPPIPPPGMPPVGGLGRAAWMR
Protocol: as §1, §2, §3

[5] = biological target: CDK9/Cyclin T1 complex (Homo sapiens, UniProt P50750); assay: CDK9 kinase inhibition assay (Caliper/LabChip EZ Reader); type: biochemical; conditions: CDK9/Cyclin T1 8 nM, ATP 2 mM, 15 min at 27° C.
Sequence of CDK9/Cyclin T1 complex (P50750 whole entry): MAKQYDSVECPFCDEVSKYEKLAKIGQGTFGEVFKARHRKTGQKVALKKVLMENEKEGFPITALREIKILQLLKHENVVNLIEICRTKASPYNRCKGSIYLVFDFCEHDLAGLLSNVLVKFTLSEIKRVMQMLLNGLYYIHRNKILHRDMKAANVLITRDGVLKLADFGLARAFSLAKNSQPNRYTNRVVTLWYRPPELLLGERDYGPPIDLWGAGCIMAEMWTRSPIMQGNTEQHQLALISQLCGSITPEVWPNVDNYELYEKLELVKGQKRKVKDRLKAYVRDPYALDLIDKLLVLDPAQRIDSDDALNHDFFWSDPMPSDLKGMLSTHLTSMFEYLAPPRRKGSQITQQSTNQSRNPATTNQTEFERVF
Sequence of CDK9/Cyclin T1 complex (O60563 whole entry partner): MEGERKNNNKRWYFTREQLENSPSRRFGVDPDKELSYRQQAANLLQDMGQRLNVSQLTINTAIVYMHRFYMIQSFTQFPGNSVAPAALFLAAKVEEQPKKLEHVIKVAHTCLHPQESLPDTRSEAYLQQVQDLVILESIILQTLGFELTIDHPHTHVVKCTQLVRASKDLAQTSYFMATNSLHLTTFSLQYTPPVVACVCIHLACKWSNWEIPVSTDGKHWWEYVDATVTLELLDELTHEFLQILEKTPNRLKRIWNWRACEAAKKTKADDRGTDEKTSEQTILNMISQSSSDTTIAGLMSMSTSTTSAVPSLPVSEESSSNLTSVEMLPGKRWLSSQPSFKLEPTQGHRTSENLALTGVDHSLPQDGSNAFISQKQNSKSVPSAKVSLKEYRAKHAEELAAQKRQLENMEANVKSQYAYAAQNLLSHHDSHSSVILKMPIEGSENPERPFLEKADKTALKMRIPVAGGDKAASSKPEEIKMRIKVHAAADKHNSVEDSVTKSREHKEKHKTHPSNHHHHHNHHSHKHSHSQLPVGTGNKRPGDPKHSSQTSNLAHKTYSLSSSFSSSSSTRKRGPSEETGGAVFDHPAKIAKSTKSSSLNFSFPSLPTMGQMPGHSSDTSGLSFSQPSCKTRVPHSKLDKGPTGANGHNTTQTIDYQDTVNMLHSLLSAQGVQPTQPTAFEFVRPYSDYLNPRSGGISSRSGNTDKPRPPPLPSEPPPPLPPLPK
Protocol: as §1, §2, §3

Row | SMILES | IC50 [1] [nM] | IC50 [2] [nM] | IC50 [3] [nM] | IC50 [4] [nM] | IC50 [5] [nM]
1 | CCc1cnc(N[C@H]2CCCNC2)nc1-c1c[nH]c2cc(S(C)(=O)=O)ccc12 [Compound 271] | 200 to 5000 |  |  |  | 
2 | N#Cc1cccc2c(-c3nc(NC4CCCNC4)ncc3C(F)(F)F)c[nH]c12 (stereo not drawn) [Compound 153] | < 20 | 20 to 200 | < 20 | 20 to 200 | 200 to 5000
3 | CNC(=O)C1CNCC(Nc2ncc(C(F)(F)F)c(-c3c[nH]c4ccccc34)n2)C1 (stereo not drawn) [Compound 256] | 200 to 5000 | 200 to 5000 | 20 to 200 | 200 to 5000 | ≥ 5000
4 | Cc1cn(-c2cccc3c(-c4nc(NC5CCCNC5)ncc4C(F)(F)F)c[nH]c23)cn1 (stereo not drawn) [Compound 172] | < 20 | 200 to 5000 | < 20 | 200 to 5000 | 200 to 5000
5 | N#Cc1ccc2[nH]cc(-c3nc(NC4CCCNC4)ncc3C(F)(F)F)c2c1 (stereo not drawn) [Compound 169] | 200 to 5000 | ≥ 5000 | 20 to 200 | 200 to 5000 | ≥ 5000
6 | FC(F)(F)c1cnc(N[C@H]2CCCNC2)nc1-c1c[nH]c2cc(-n3ccnc3)ccc12 [Compound 248] |  | 200 to 5000 | < 20 | 200 to 5000 | 200 to 5000
7 | FC(F)(F)c1cnc(NC2CCCNC2)nc1-c1c[nH]c2c(-c3ccncc3)cccc12 (stereo not drawn) [Compound 162] | < 20 |  | 20 to 200 | 200 to 5000 | 200 to 5000
8 | FC(F)(F)c1cnc(NC2CCCNC2)nc1-c1c[nH]c2c(Br)cccc12 (stereo not drawn) [Compound 163] | 20 to 200 |  | 20 to 200 | 200 to 5000 | 200 to 5000
9 | Cn1cc(-c2cccc3c(-c4nc(NC5CCCNC5)ncc4C(F)(F)F)c[nH]c23)cn1 (stereo not drawn) [Compound 164] | < 20 |  | 20 to 200 | 200 to 5000 | 200 to 5000
10 | CCc1cnc(N[C@H]2CCCNC2)nc1-c1c[nH]c2c(S(=O)(=O)O)cccc12 [Compound 362] |  | ≥ 5000 | 20 to 200 | ≥ 5000 | ≥ 5000
11 | CC(C)C1CCC(Nc2nccc(-c3c[nH]c4ccccc34)n2)CN1 (stereo not drawn) [Compound 237] |  | 200 to 5000 | 20 to 200 | 200 to 5000 | ≥ 5000
12 | CC1(O)CCC(c2cccc3c(-c4nc(NC5CCCNC5)ncc4C(F)(F)F)c[nH]c23)CC1 (stereo not drawn) [Compound 193] |  | 200 to 5000 | 20 to 200 | 200 to 5000 | 200 to 5000
13 | CC1CCC(Nc2ncc(Cl)c(-c3c[nH]c4ccccc34)n2)CN1 (stereo not drawn) [Compound 129] | 20 to 200 |  | 20 to 200 | 200 to 5000 | 
14 | CC1CCNCC1Nc1ncc(Cl)c(-c2c[nH]c3ccccc23)n1 (stereo not drawn) [Compound 126] |  | 200 to 5000 | 20 to 200 | 200 to 5000 | 200 to 5000
15 | CSc1cnc(NC2CCCNC2)nc1-c1c[nH]c2cc(C#N)ccc12 (stereo not drawn) [Compound 272] | 20 to 200 |  |  |  | 
16 | CC1(O)CCN(C(=O)c2ccc3c(-c4nc(NC5CCCNC5)ncc4C(F)(F)F)c[nH]c3c2)C1 (stereo not drawn) [Compound 220] |  | ≥ 5000 | < 20 | 200 to 5000 | ≥ 5000
17 | CCC1(Nc2ncc(Cl)c(-c3c[nH]c4ccccc34)n2)CCCNC1 (stereo not drawn) [Compound 128] |  | ≥ 5000 | ≥ 5000 | ≥ 5000 | ≥ 5000
18 | CCc1cnc(NC2CCCNC2)nc1-c1c[nH]c2c(S(=O)O)cccc12 (stereo not drawn) [Compound 363] |  | ≥ 5000 | 20 to 200 | ≥ 5000 | ≥ 5000
19 | Clc1cnc(NC2(c3ccccc3)CCCNC2)nc1-c1c[nH]c2ccccc12 (stereo not drawn) [Compound 130] | 200 to 5000 |  | ≥ 5000 | ≥ 5000 | 
